Measurements from ChEMBL document CHEMBL3885861, “Open TG-GATES”.

Organism: Rattus norvegicus
Assay: Open TG-GATES - Regimen: Single
Format: toxicity, organism-based, Sprague-Dawley
Design: regimen Single, gender Male, age 6 weeks
Conditions: in vivo, po, 3 mg/kg, route gavage, dose level Low; for APTT / Bas / Eos / Fbg / Hb / Ht / Lym / MCH / MCHC / MCV / Mono / Neu / PT / Plat / RBC / Ret / WBC: tissue Blood; for KIDNEY_L / KIDNEY_R / KIDNEY_TOTAL: tissue Kidney; for LIVER: tissue Liver; for A/G / ALP / ALT / AST / BUN / CRE / Ca / Cl / DBIL / GLC / IP / K / LDH / Na / PL / RALB / TBIL / TC / TG / TP / gamma-GTP: tissue Plasma

`C[C@H]1C(=O)O[C@@H]2CCN3CC=C(COC(=O)[C@](C)(O)[C@]1(C)O)[C@H]23` [MONOCROTALINE] showed a TERMINAL_BW (3 h) of 207 g, an APTT (3 h) of 21.1 s and a Bas (3 h) of 0%. For the same compound, the Eos (3 h) was 0.8%, the Fbg (3 h) was 296.8 mg/dL and the Hb (3 h) was 13.5 g/dL. For the same compound, the Ht (3 h) was 39.3%, the Lym (3 h) was 80.4% and the MCH (3 h) was 21.9 pg. The MCHC (3 h) was 34.3%, the MCV (3 h) was 63.9 fL and the Mono (3 h) was 2.6%. It also gave a Neu (3 h) of 16.6%, a PT (3 h) of 16.6 s and a Plat (3 h) of 121 x10_4/uL. The RBC (3 h) was 615.6 x10_4/ul, the Ret (3 h) was 8.9% and the WBC (3 h) was 70.3 x10_2/uL. The KIDNEY_L (3 h) was 0.9 g, the KIDNEY_R (3 h) was 0.9 g and the KIDNEY_TOTAL (3 h) was 1.8 g. The LIVER (3 h) was 9.6 g, the A/G (3 h) was 1.4 and the ALP (3 h) was 1405.4 IU/L. The ALT (3 h) was 40.4 IU/L, the AST (3 h) was 70.6 IU/L and the BUN (3 h) was 14.4 mg/dL. It also gave a CRE (3 h) of 0.1 mg/dL, a Ca (3 h) of 10.6 mg/dL and a Cl (3 h) of 106.4 meq/L. It also gave a DBIL (3 h) of 0.002 mg/dL, a GLC (3 h) of 176.6 mg/dL and an IP (3 h) of 8.6 mg/dL. The K (3 h) was 4.2 meq/L, the LDH (3 h) was 232.4 IU/L and the Na (3 h) was 142.8 meq/L. It also gave a PL (3 h) of 141 mg/dL, an RALB (3 h) of 3.1 g/dL and a TBIL (3 h) of 0.014 mg/dL. It also gave a TC (3 h) of 79.4 mg/dL, a TG (3 h) of 73.8 mg/dL and a TP (3 h) of 5.4 g/dL. It also gave a gamma-GTP (3 h) of 1 IU/L, a TERMINAL_BW (6 h) of 213.3 g and an APTT (6 h) of 20.6 s. For the same compound, the Bas (6 h) was 0%, the Eos (6 h) was 0.8% and the Fbg (6 h) was 314 mg/dL. It also gave a Hb (6 h) of 13.4 g/dL, a Ht (6 h) of 39.7% and a Lym (6 h) of 77.6%. The MCH (6 h) was 21.3 pg, the MCHC (6 h) was 33.9% and the MCV (6 h) was 62.8 fL. It also gave a Mono (6 h) of 2.4%, a Neu (6 h) of 17.8% and a PT (6 h) of 16.2 s. The Plat (6 h) was 124.3 x10_4/uL, the RBC (6 h) was 632.2 x10_4/ul and the Ret (6 h) was 9.3%. The WBC (6 h) was 86.8 x10_2/uL, the KIDNEY_L (6 h) was 0.9 g and the KIDNEY_R (6 h) was 0.9 g. It also gave a KIDNEY_TOTAL (6 h) of 1.9 g, an LIVER (6 h) of 9.9 g and an A/G (6 h) of 1.3. For the same compound, the ALP (6 h) was 1354.2 IU/L, the ALT (6 h) was 40 IU/L and the AST (6 h) was 67.2 IU/L. The BUN (6 h) was 12.2 mg/dL, the CRE (6 h) was 0.1 mg/dL and the Ca (6 h) was 10.7 mg/dL. The Cl (6 h) was 106 meq/L, the DBIL (6 h) was 0.004 mg/dL and the GLC (6 h) was 175.2 mg/dL. The IP (6 h) was 9.3 mg/dL, the K (6 h) was 4.5 meq/L and the LDH (6 h) was 200 IU/L. For the same compound, the Na (6 h) was 141.8 meq/L, the PL (6 h) was 139.8 mg/dL and the RALB (6 h) was 3.1 g/dL. It also gave a TBIL (6 h) of 0.01 mg/dL, a TC (6 h) of 78 mg/dL and a TG (6 h) of 86.2 mg/dL. It also gave a TP (6 h) of 5.4 g/dL, a gamma-GTP (6 h) of 1.2 IU/L and a TERMINAL_BW (9 h) of 205.5 g. The APTT (9 h) was 21 s, the Bas (9 h) was 0% and the Eos (9 h) was 0.6%. It also gave a Fbg (9 h) of 291 mg/dL, a Hb (9 h) of 13.3 g/dL and a Ht (9 h) of 38.9%. The Lym (9 h) was 79.8%, the MCH (9 h) was 20.7 pg and the MCHC (9 h) was 34.2%. The MCV (9 h) was 60.6 fL, the Mono (9 h) was 2.2% and the Neu (9 h) was 16.2%. The PT (9 h) was 16.4 s, the Plat (9 h) was 126 x10_4/uL and the RBC (9 h) was 642.2 x10_4/ul. The Ret (9 h) was 8.7%, the WBC (9 h) was 73.2 x10_2/uL and the KIDNEY_L (9 h) was 0.9 g. For the same compound, the KIDNEY_R (9 h) was 1 g, the KIDNEY_TOTAL (9 h) was 1.9 g and the LIVER (9 h) was 8.8 g. The A/G (9 h) was 1.3, the ALP (9 h) was 1565.2 IU/L and the ALT (9 h) was 35.6 IU/L. For the same compound, the AST (9 h) was 67 IU/L, the BUN (9 h) was 12.4 mg/dL and the CRE (9 h) was 0.1 mg/dL. It also gave a Ca (9 h) of 10.5 mg/dL, a Cl (9 h) of 106 meq/L and a DBIL (9 h) of 0.006 mg/dL. The GLC (9 h) was 184.4 mg/dL, the IP (9 h) was 9.5 mg/dL and the K (9 h) was 4 meq/L. For the same compound, the LDH (9 h) was 197 IU/L, the Na (9 h) was 142.2 meq/L and the PL (9 h) was 130.6 mg/dL. It also gave an RALB (9 h) of 3.1 g/dL, a TBIL (9 h) of 0.02 mg/dL and a TC (9 h) of 72.2 mg/dL. The TG (9 h) was 48.6 mg/dL, the TP (9 h) was 5.4 g/dL and the gamma-GTP (9 h) was 1 IU/L. It also gave a TERMINAL_BW (24 h) of 217.7 g, an APTT (24 h) of 20.9 s and a Bas (24 h) of 0%. It also gave an Eos (24 h) of 1%, a Fbg (24 h) of 305 mg/dL and a Hb (24 h) of 13.2 g/dL. It also gave a Ht (24 h) of 38.8%, a Lym (24 h) of 80.6% and an MCH (24 h) of 20.5 pg. For the same compound, the MCHC (24 h) was 34.1%, the MCV (24 h) was 60.3 fL and the Mono (24 h) was 2.6%. The Neu (24 h) was 15%, the PT (24 h) was 16.2 s and the Plat (24 h) was 117.2 x10_4/uL. It also gave an RBC (24 h) of 645.2 x10_4/ul, a Ret (24 h) of 7.7% and a WBC (24 h) of 97.3 x10_2/uL. For the same compound, the KIDNEY_L (24 h) was 1 g, the KIDNEY_R (24 h) was 1 g and the KIDNEY_TOTAL (24 h) was 2 g. It also gave an LIVER (24 h) of 10.4 g, an A/G (24 h) of 1.3 and an ALP (24 h) of 1841.2 IU/L. For the same compound, the ALT (24 h) was 43.6 IU/L, the AST (24 h) was 70.2 IU/L and the BUN (24 h) was 16.4 mg/dL. The CRE (24 h) was 0.1 mg/dL, the Ca (24 h) was 10.8 mg/dL and the Cl (24 h) was 106.4 meq/L. For the same compound, the DBIL (24 h) was 0.006 mg/dL, the GLC (24 h) was 178 mg/dL and the IP (24 h) was 7.6 mg/dL. For the same compound, the K (24 h) was 4.2 meq/L, the LDH (24 h) was 220.2 IU/L and the Na (24 h) was 142.2 meq/L. For the same compound, the PL (24 h) was 160.2 mg/dL, the RALB (24 h) was 3.2 g/dL and the TBIL (24 h) was 0.006 mg/dL. For the same compound, the TC (24 h) was 81.2 mg/dL, the TG (24 h) was 102.8 mg/dL and the TP (24 h) was 5.6 g/dL. The gamma-GTP (24 h) was 1 IU/L.
